The data set in a line: molar enthalpy of vaporization or sublimation. To be noted: 298.15 K; Liquid; Static calorimetry.

Molecules are shown by their SMILES. ± gives the expanded uncertainty stated by the source.

On to `NCCCN1CCOCC1` [N-(3-aminopropyl)morpholine], for which the molar enthalpy turned out to be 14.8 ± 0.86 kcal/mol. Then `NCCN1CCOCC1` [4-morpholineethanamine], with 15.3 ± 0.932 kcal/mol.
